Tested on: infants at 24 months
Test: Associations of maternal plasma carotenoids concentrations with Bayley Scales of Infant and Toddler Development-III (BSID-III) scores, GUSTO cohort, linear regression
Format: in vivo, human
Conditions: for Cognitive β (95% CI) / Expressive Language β (95% CI) / Fine motor β (95% CI) / Gross motor β (95% CI) / Receptive language β (95% CI): per SD increment in log-transformed maternal plasma concentration
Method: The Bayley Scales of Infant and Toddler Development, 3rd edition (BSID-III) 2006 was administered to infants at 24 (±1) months, in their homes when infants were likely to be alert. This is a standardized test that assesses development of children 1-42 months of age in the following domains: cognitive, receptive and expressive language, and fine and gross motor skills. The test was administered in English, Chinese, Malay or Tamil languages depending on the child's dominant language.
Data for the present analysis were from the Growing Up in Singapore Towards healthy Outcomes (GUSTO) study a prospective mother-offspring cohort in Singapore (34). Detailed descriptions of the GUSTO study have been published Soh, et al 2014 Int. J Epidemiology 43(5):1401-9, which is hereby incorporated by reference. In brief, pregnant women (≥18 years) in their first trimester (<14 weeks) were recruited from the National University Hospital (NUH) and KK Women's and Children's Hospital (KKH) between June 2009 and September 2010. To be eligible for the study, the pregnant person had to: 1) be a Singapore citizen or permanent residents of Chinese, Malay or Indian ethnicity with homogenous parental ethnic background; 2) have an intention to deliver in the two hospitals and to reside in Singapore for the next five years; and 3) consent to donate birth tissues at delivery. Women receiving chemotherapy, psychotropic drugs or were diagnosed with type-1 diabetes were not eligible to participate. The GUSTO study has received ethical approval from the Institutional Review Board of NUH and KKH, and all procedures were conducted according to the guidelines laid down in the Declaration of Helsinki. Written informed consent was obtained from all participants at study recruitment.
A total of 1247 pregnant women participated at baseline. The present analysis included pregnant women who had singleton live births (n=1237), in whom plasma carotenoids concentrations were analyzed (n=701), and their offspring completed neurocognitive assessments at 24 months (n=361).
Administration and scoring was performed by research coordinators trained by the head psychologist from KKH in accordance to the manual. Raw test scores were used as age-specific norms were not available for our population.
Maternal plasma concentrations of individual carotenoids were summarized according to maternal and infant characteristics for the 419 mother-offspring pairs with data for the cognitive test. Differences in concentrations between groups were compared using non-parametric analyses Wilcoxon rank-sum and Kruskal-Wallis tests, as data were not normally distributed. Bonferroni post hoc analysis was performed to identify groups which differed if the Kruskal Wallis test was significant. The values for individual maternal plasma carotenoids were log-transformed, then converted to standard deviation scores (SDS) for easier interpretation. The BSID-III raw scores were also converted to SDS to facilitate comparison across the cognitive tests and domain scales.
Associations of each maternal plasma carotenoids with each BSID-III scale in the children were examined using linear regressions. Several statistical models were employed: Model 1 basic model with adjustment for infant's exact age at cognitive testing; Model 2 additional adjustment for maternal age, ethnicity, education, pre-pregnancy BMI, antenatal depression and anxiety levels (potential confounders). We considered Model 2 to be the main model. Further adjustment for infant gestational age, birth weight and breastfeeding duration was performed to examine if any associations found were acting through these factors (Model 3).
Missing data for covariates were imputed using multiple imputation technique with chained equations (20 times) for the following confounding variables: n=3 maternal education, n=7 EPDS, n=21 STAI, n=40 maternal pre-pregnancy BMI, n=5 infant birthweight and n=10 breastfeeding duration. […]

[1] = Model 1 (adjusted for infant's age at testing), BSID-III at 24 months, n = 361
[2] = Model 1, BSID-III at 24 months, n = 361
[3] = Model 2 (Model 1 plus maternal age, ethnicity, education, pre-pregnancy BMI, parity, antenatal depression and anxiety), 24 months
[4] = Model 2 (adjusted for confounders), 24 months
[5] = Model 3 (Model 2 plus infant gestational age, birth weight, breastfeeding duration), 24 months
[6] = Model 3 (also adjusted for potential mediators), 24 months

In the case of `CC1=CCCC(C)(C)C1/C=C/C(C)=C/C=C/C(C)=C/C=C/C=C(C)/C=C/C=C(C)/C=C/C1=C(C)CCCC1(C)C` (stereo not drawn) [α-carotene], the “Cognitive β (95% CI)” value [1] is reported as 0.06 SD, the “Expressive Language β (95% CI)” value [2] is reported as 0.10 SD and the “Fine motor β (95% CI)” value [2] is reported as 0.08 SD. The “Gross motor β (95% CI)” value [2] was 0.08 SD, the “Receptive language β (95% CI)” value [2] was 0.09 SD and the “Cognitive β (95% CI)” value [3] was −0.01 SD. For the same compound, the “Expressive Language β (95% CI)” value [4] was 0.06 SD, the “Fine motor β (95% CI)” value [4] was 0.06 SD and the “Gross motor β (95% CI)” value [4] was 0.06 SD. For the same compound, the “Receptive language β (95% CI)” value [4] was 0.002 SD, the “Cognitive β (95% CI)” value [5] was −0.04 SD and the “Expressive Language β (95% CI)” value [6] was 0.02 SD. For the same compound, the “Fine motor β (95% CI)” value [6] was 0.05 SD, the “Gross motor β (95% CI)” value [6] was 0.04 SD and the “Receptive language β (95% CI)” value [6] was −0.04 SD.
In the case of `CC1=C(/C=C/C(C)=C/C=C/C(C)=C/C=C/C=C(C)/C=C/C=C(C)/C=C/C2=C(C)C[C@@H](O)CC2(C)C)C(C)(C)C[C@H](O)C1` [Zeaxanthin, zeaxanthin], the “Cognitive β (95% CI)” value [1] is reported as 0.01 SD, the “Expressive Language β (95% CI)” value [2] is reported as −0.09 SD and the “Fine motor β (95% CI)” value [2] is reported as 0.04 SD. The “Gross motor β (95% CI)” value [2] was 0.02 SD, the “Receptive language β (95% CI)” value [2] was −0.10 SD and the “Cognitive β (95% CI)” value [3] was 0.05 SD. For the same compound, the “Expressive Language β (95% CI)” value [4] was −0.05 SD, the “Fine motor β (95% CI)” value [4] was 0.05 SD and the “Gross motor β (95% CI)” value [4] was 0.04 SD. The “Receptive language β (95% CI)” value [4] was −0.05 SD, the “Cognitive β (95% CI)” value [5] was 0.05 SD and the “Expressive Language β (95% CI)” value [6] was −0.04 SD. The “Fine motor β (95% CI)” value [6] was 0.05 SD, the “Gross motor β (95% CI)” value [6] was 0.05 SD and the “Receptive language β (95% CI)” value [6] was −0.04 SD.
With `CC1=C[C@H](O)CC(C)(C)[C@H]1/C=C/C(C)=C/C=C/C(C)=C/C=C/C=C(C)/C=C/C=C(C)/C=C/C1=C(C)C[C@@H](O)CC1(C)C` [Lutein, lutein] the “Cognitive β (95% CI)” value [1] was 0.03 SD, the “Expressive Language β (95% CI)” value [2] was 0.004 SD and the “Fine motor β (95% CI)” value [2] was 0.01 SD. For the same compound, the “Gross motor β (95% CI)” value [2] was 0.03 SD, the “Receptive language β (95% CI)” value [2] was 0.08 SD and the “Cognitive β (95% CI)” value [3] was −0.08 SD. The “Expressive Language β (95% CI)” value [4] was −0.09 SD, the “Fine motor β (95% CI)” value [4] was 0.02 SD and the “Gross motor β (95% CI)” value [4] was −0.02 SD. For the same compound, the “Receptive language β (95% CI)” value [4] was −0.04 SD, the “Cognitive β (95% CI)” value [5] was −0.11 SD and the “Expressive Language β (95% CI)” value [6] was −0.12 SD. The “Fine motor β (95% CI)” value [6] was −0.04 SD, the “Gross motor β (95% CI)” value [6] was −0.04 SD and the “Receptive language β (95% CI)” value [6] was −0.08 SD.
`CC(C)=CCC/C(C)=C/C=C/C(C)=C/C=C/C(C)=C/C=C/C=C(C)/C=C/C=C(C)/C=C/C=C(\C)CCC=C(C)C` [Lycopene, lycopene] was tested, and the “association of higher maternal concentrations with performance in expressive language” value (24 months, result in words) was “associated with better performance”, the “association of higher maternal concentrations with receptive language” value (24 months, result in words) was “not with receptive language” and the “Cognitive β (95% CI)” value [1] was 0.14 SD. The “Expressive Language β (95% CI)” value [2] was 0.15 SD, the “Fine motor β (95% CI)” value [2] was 0.04 SD and the “Gross motor β (95% CI)” value [2] was 0.09 SD. The “Receptive language β (95% CI)” value [2] was 0.11 SD, the “Cognitive β (95% CI)” value [3] was 0.12 SD and the “Expressive Language β (95% CI)” value [4] was 0.15 SD. For the same compound, the “Fine motor β (95% CI)” value [4] was 0.03 SD, the “Gross motor β (95% CI)” value [4] was 0.08 SD and the “Receptive language β (95% CI)” value [4] was 0.09 SD. For the same compound, the “Expressive Language β (95% CI)” value (Model 2 (adjusted for confounders), 24 months, listed as lycopene) was 0.15 SD, the “Cognitive β (95% CI)” value [5] was 0.11 SD and the “Expressive Language β (95% CI)” value [6] was 0.14 SD. For the same compound, the “Fine motor β (95% CI)” value [6] was 0.02 SD, the “Gross motor β (95% CI)” value [6] was 0.09 SD and the “Receptive language β (95% CI)” value [6] was 0.07 SD.
In the case of `CC1=C(/C=C/C(C)=C/C=C/C(C)=C/C=C/C=C(C)/C=C/C=C(C)/C=C/C2=C(C)C[C@@H](O)CC2(C)C)C(C)(C)CCC1` [β-cryptoxanthin], the “association of higher maternal concentrations with cognitive development in infants” value (BSID-III scales at 24 months, after adjustment for confounders, result in words) is reported as “most consistently associated with better cognitive development”, the “Cognitive β (95% CI)” value [1] is reported as 0.21 SD and the “Expressive Language β (95% CI)” value [2] is reported as 0.15 SD. For the same compound, the “Fine motor β (95% CI)” value [2] was 0.17 SD, the “Gross motor β (95% CI)” value [2] was 0.17 SD and the “Receptive language β (95% CI)” value [2] was 0.21 SD. For the same compound, the “Cognitive β (95% CI)” value [3] was 0.18 SD, the “Expressive Language β (95% CI)” value [4] was 0.13 SD and the “Fine motor β (95% CI)” value [4] was 0.16 SD. For the same compound, the “Gross motor β (95% CI)” value [4] was 0.16 SD, the “Receptive language β (95% CI)” value [4] was 0.17 SD and the “Cognitive β (95% CI)” value [5] was 0.18 SD. For the same compound, the “Expressive Language β (95% CI)” value [6] was 0.12 SD, the “Fine motor β (95% CI)” value [6] was 0.15 SD and the “Gross motor β (95% CI)” value [6] was 0.15 SD. For the same compound, the “Receptive language β (95% CI)” value [6] was 0.16 SD.
For `CC1=C(/C=C/C(C)=C/C=C/C(C)=C/C=C/C=C(C)/C=C/C=C(C)/C=C/C2=C(C)CCCC2(C)C)C(C)(C)CCC1` [β-carotene], the “Cognitive β (95% CI)” value [1] was 0.22 SD, the “Expressive Language β (95% CI)” value [2] was 0.18 SD and the “Fine motor β (95% CI)” value [2] was 0.14 SD. For the same compound, the “Gross motor β (95% CI)” value [2] was 0.15 SD, the “Receptive language β (95% CI)” value [2] was 0.23 SD and the “Cognitive β (95% CI)” value [3] was 0.16 SD. The “Expressive Language β (95% CI)” value [4] was 0.14 SD, the “Fine motor β (95% CI)” value [4] was 0.12 SD and the “Gross motor β (95% CI)” value [4] was 0.14 SD. The “Receptive language β (95% CI)” value [4] was 0.15 SD, the “Cognitive β (95% CI)” value [5] was 0.13 SD and the “Expressive Language β (95% CI)” value [6] was 0.10 SD. The “Fine motor β (95% CI)” value [6] was 0.10 SD, the “Gross motor β (95% CI)” value [6] was 0.12 SD and the “Receptive language β (95% CI)” value [6] was 0.11 SD.
